Reference: patent publication US6852689B2, “Methods for administration of antibiotics” (priority 1998, dated 2005)
“And” between values parts separate entries of the source, which are not always exact repeats. Equal values may be shown once. Read-outs that look alike come from different tables or passages of the source.

Legend:
dogs [1] = assay: Study A: skeletal muscle toxicity (serum CPK, microscopic myopathy) after repeated intravenous dosing; conditions: for Diaphragm myofiber degeneration, sites affected/sites examined / Heart myofiber degeneration, sites affected/sites examined / Skeletal muscle myofiber degeneration, sites affected/sites examined / Skeletal muscle myofiber regeneration, sites affected/sites examined: iv 20 days
Protocol: (§1) Skeletal muscle toxicity was measured in dogs by increases in CPK levels to above the normal range and by microscopic changes in skeletal tissue.
Treated animals were sacrificed at approximately one dosing interval after the last dose and muscle tissue was microscopically examined for indications of myopathy.

[2] = Study A: steady state plasma concentrations of daptomycin on day 18 by HPLC; conditions: dogs
Protocol: as §1
Steady state plasma concentrations of daptomycin on day 18 of dosing were determined by HPLC.

dogs [3] = assay: Study B: skeletal muscle toxicity (serum CPK, microscopic myopathy) after repeated intravenous dosing; type: in vivo, dog
Protocol: Serum CPK levels were determined as disclosed in Example 1. […] In contrast, CPK levels at 5 mg/kg q8h were elevated compared to 5 mg/kg q24h or saline controls.

[4] = Study B: steady state plasma concentrations of daptomycin on day 18 by HPLC
Protocol: In order to study the effects of threshold plasma concentration on skeletal muscle toxicity, dogs (4 male dogs/group) were administered dose regimens of saline q8h, daptomycin 5 mg/kg q24h (approximate NOELq24h) and daptomycin 5 mg/kg q8h intravenously for 20 days.
As in Example 1, steady state plasma concentrations of daptomycin on day 18 of dosing were determined by HPLC.

human patients = assay: Clinical study (Example 4): serum CPK and skeletal muscle effects in hospitalized adult subjects with gram-positive infections; type: in vivo
Protocol: In order to study whether an increased dosing interval would prevent transient skeletal muscle toxicity in patients, daptomycin was administered intravenously to hospitalized adult subjects with serious gram-positive bacteremia or with a variety of infections due to gram-positive bacteria that was resistant to vancomycin or who were otherwise refractory to, or contraindicated for, currently available therapy. The subjects were treated for a period of 7-21 days. Serum CPK levels were determined prior to first antibiotic treatment and every other day for the first seven days of treatment, and daily thereafter.

[5] = human, in vivo
gram-positive bacteria = conditions: cited from earlier work
[6] = test system: human volunteers and patients; conditions: in vivo, cited from earlier work
rats = conditions: rat, in vivo, iv, 75 mg/kg/day; cited from earlier work
dogs [7] = conditions: dog, in vivo, iv, 40 mg/kg/day; cited from earlier work
[8] = cited from earlier work

CCCCCCCCCC(=O)N[C@@H](Cc1c[nH]c2ccccc12)C(=O)N[C@H](CC(N)=O)C(=O)N[C@@H](CC(=O)O)C(=O)N[C@@H]1C(=O)NCC(=O)N[C@@H](CCCN)C(=O)N[C@@H](CC(=O)O)C(=O)N[C@H](C)C(=O)N[C@@H](CC(=O)O)C(=O)NCC(=O)N[C@H](CO)C(=O)N[C@@H]([C@H](C)CC(=O)O)C(=O)N[C@@H](CC(=O)c2ccccc2N)C(=O)O[C@@H]1C [daptomycin]
Increases in serum CPK correlating with minimal skeletal myofiber degeneration (dogs [1]; dog, in vivo): three- to 25 | Microscopic effect on heart muscle (dogs [1]; dog, in vivo): No microscopic degenerative effect | Time of CPK peak during treatment (dogs [1]; dog, in vivo): approximately 1 week | Increase in CPK levels (dogs [1]; dog, in vivo, 25 mg/kg): greater than 10 fold | Incidence of Microscopic Myopathy (sites with minimal degenerative changes/sites examined) (dogs [1]; dog, in vivo, iv, 75 mg/kg): 8/28 | Peak CPK (dogs [1]; dog, in vivo, iv, 75 mg/kg): 990 U/L | Increase in toxicity as measured by incidence of microscopic myopathy (dogs [1]; dogs, 25 mg/kg three times a day compared to once daily): 5 fold | Diaphragm myofiber degeneration, sites affected/sites examined (dogs [1]; dogs, 25 mg/kg q8h): 1/4 | Heart myofiber degeneration, sites affected/sites examined (dogs [1]; dogs, 25 mg/kg q8h): 0/4 | Skeletal muscle myofiber degeneration, sites affected/sites examined (dogs [1]; dogs, 25 mg/kg q8h): 14/24 | Skeletal muscle myofiber regeneration, sites affected/sites examined (dogs [1]; dogs, 25 mg/kg q8h): 9/24 | Diaphragm myofiber degeneration, sites affected/sites examined (dogs [1]; dogs, 25 mg/kg q24h): 0/4 | Heart myofiber degeneration, sites affected/sites examined (dogs [1]; dogs, 25 mg/kg q24h): 0/4 | Skeletal muscle myofiber degeneration, sites affected/sites examined (dogs [1]; dogs, 25 mg/kg q24h): 3/24 | Skeletal muscle myofiber regeneration, sites affected/sites examined (dogs [1]; dogs, 25 mg/kg q24h): 2/24 | Diaphragm myofiber degeneration, sites affected/sites examined (dogs [1]; dogs, 75 mg/kg q24h): 0/4 | Heart myofiber degeneration, sites affected/sites examined (dogs [1]; dogs, 75 mg/kg q24h): 0/4 | Skeletal muscle myofiber degeneration, sites affected/sites examined (dogs [1]; dogs, 75 mg/kg q24h): 8/24 | Skeletal muscle myofiber regeneration, sites affected/sites examined (dogs [1]; dogs, 75 mg/kg q24h): 1/24 | Cmax ratio ([2]; 25 mg/kg q8h compared to 25 mg/kg q24h): 1.23 fold higher | AUC ratio ([2]; 25 mg/kg q8h compared to 75 mg/kg q24h): 0.37 fold higher | Time with plasma concentration below 27 μg/mL before next dose ([2]; 75 mg/kg q24h): approximately 12 hours | Cmax ratio ([2]; 75 mg/kg q24h compared to 25 mg/kg q8h): approximately 2.8 fold higher | Effect on heart muscle (dogs [3]; dog, in vivo): No degenerative effect | Increases in CPK levels correlating with very minimal myofiber degeneration (dogs [3]; dog, in vivo): zero- to four-fold | Heart myofiber degeneration, sites affected/sites examined (dogs [3]; dog, in vivo, iv, 5 mg/kg): 0/4 | NOEL (dogs [3]; dogs, q24h dosing interval): approximately 5 mg/kg | half-life ([4]; dog, in vivo): 2.5 h | Time below 10 μg/mL plasma concentration ([4]; dogs, 5 mg/kg q8h): 6 h | AUC ratio ([4]; dogs, 5 mg/kg q8h compared to 5 mg/kg q24h): 2.6 fold higher | Time below 10 μg/mL plasma concentration ([4]; dogs, 5 mg/kg q24h): 18 h | Muscular pain or weakness (human patients; human, in vivo): None of the patients experienced any muscular pain or weakness | Total Number of Patients with Presumed Drug-Related Adverse Skeletal Muscle Effects/Total Evaluated (human patients; iv 7-21 days, 4 mg/kg q24h): 0/8 | Total Number of Patients with Presumed Drug-Related Adverse Skeletal Muscle Effects/Total Evaluated (human patients; iv 7-21 days, 6 mg/kg q24h, 6 mg/kg): zero of nine and 0/9 | Total Number of Patients with Presumed Drug-Related Adverse Skeletal Muscle Effects/Total Evaluated (human patients; iv, 6 mg/kg followed by 3 mg/kg q12h): 0/3 | Predicted Cmax ([5]; 4 mg/kg): 69.2 µg/mL | Predicted Cmax ([5]; 6 mg/kg): 86.8 µg/mL | MIC of certain vancomycin-resistant strains relative to most vancomycin-susceptible strains (gram-positive bacteria): two- to four-fold | MIC relative to that of vancomycin (gram-positive bacteria; susceptible strains, typical): 4 fold lower | Adverse effects ([6]; 3 mg/kg): occasional adverse effects | Patients with transient muscular weakness and pain ([6]; 4 mg/kg): two of five | Skeletal muscle finding (rats): mild myopathy | Skeletal muscle finding (dogs [7]): mild myopathy | Plasma protein binding [8]: high
